Results as given in patent US20250109370A1, “METHOD FOR PRODUCING CELL SUPPORT COMPOSITE, METHOD FOR PRODUCING DRUG EVALUATION APPARATUS, DRUG EVALUATION METHOD, AND DRUG EVALUATION APPARATUS” (NIKKISO CO., LTD., priority 2022, published 2025).

Columns and labels:
OAT1 = target: T1, OAT1 (Homo sapiens, UniProt Q4U2R8); experiment: Membrane transportation evaluation using Transwell: cellular intake of radiolabeled Adefovir by monolayer of re-seeded aggregate-cultured cells (Test 7); format: in vitro ADME
T1 construct: Adefovir is a drug as a substrate for OAT1, that is, a drug that is transported by OAT1; host or cells: human renal proximal tubule epithelial cells, aggregate-cultured and re-seeded as a monolayer on a Transwell insert
T1 sequence (Q4U2R8 1-563): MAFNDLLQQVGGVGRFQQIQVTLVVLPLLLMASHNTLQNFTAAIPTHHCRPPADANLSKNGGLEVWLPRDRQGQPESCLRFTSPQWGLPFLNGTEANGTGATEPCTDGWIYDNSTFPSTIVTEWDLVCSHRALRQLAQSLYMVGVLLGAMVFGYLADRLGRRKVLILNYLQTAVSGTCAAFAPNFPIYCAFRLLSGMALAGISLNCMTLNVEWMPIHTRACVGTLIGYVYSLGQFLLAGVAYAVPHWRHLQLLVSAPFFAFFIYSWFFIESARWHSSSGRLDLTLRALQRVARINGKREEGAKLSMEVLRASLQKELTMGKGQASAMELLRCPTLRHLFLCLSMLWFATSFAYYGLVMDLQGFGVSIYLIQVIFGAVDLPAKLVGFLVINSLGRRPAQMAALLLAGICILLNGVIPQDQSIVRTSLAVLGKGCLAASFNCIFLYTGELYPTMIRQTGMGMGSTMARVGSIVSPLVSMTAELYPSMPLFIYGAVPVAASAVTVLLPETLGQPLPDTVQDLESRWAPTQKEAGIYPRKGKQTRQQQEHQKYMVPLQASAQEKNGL
Description: (§1) First, aggregates were formed, and a cell suspension was prepared from the aggregates to thereby re-seed the cells on the insert in the same manner as in Test 2. The seeding density was set to 4×10^4/well (12×10^4 cells/cm^2). Then, on the day after re-seeding (within 18 to 24 hours of re-seeding), membrane transport evaluation was performed using Transwell. In the membrane transport evaluation, radiolabeled Adefovir and radiolabeled Metformin were used. Adefovir is a drug as a substrate for OAT1, that is, a drug that is transported by OAT1. Metformin is a drug as a substrate for OCT2, that is, a drug that is transported by OCT2.
(§2) An assay buffer with each substrate added to a HBSS buffer was added to insert of the Transwell and treated for a predetermined time. For the Adefovir test, the treatment time was 2 minutes. For the Metformin test, the treatment time was 10 minutes. The cells were then retrieved, a cell suspension was prepared, and the radioisotopes in the cell suspension were quantified. As a result, the amount of substrate intake into the cell from the cellular apical membrane side was evaluated. The amount of substrate intake was also evaluated in the same manner when an inhibitor of OAT1, Probenecid, was added to the assay buffer and when an inhibitor of OCT2, Cimetidine, was added to the assay buffer.
(§3) The assay buffer was also added to the well of the Transwell and treated for a predetermined time. For the Adefovir test, the treatment time was 2 minutes. For the Metformin test, the treatment time was 10 minutes. The cells were then retrieved, a cell suspension was prepared, and the radioisotopes in the cell suspensions were quantified. As a result, the amount of substrate intake into the cell from the cellular basement membrane side was evaluated. The amount of substrate intake was also evaluated in the same manner when an inhibitor Probenecid was added to the assay buffer and when an inhibitor Cimetidine was added to the assay buffer.
(§4) In FIG. 15A and FIG. 15B, “A to C” indicates the amount of substrate intake into the cell from the cellular apical membrane side. […]

OCT2 = target: T2, OCT2 (Homo sapiens, UniProt O15244); experiment: Membrane transportation evaluation using Transwell: cellular intake of radiolabeled Metformin by monolayer of re-seeded aggregate-cultured cells (Test 7); format: in vitro ADME
T2 sequence (O15244 1-555): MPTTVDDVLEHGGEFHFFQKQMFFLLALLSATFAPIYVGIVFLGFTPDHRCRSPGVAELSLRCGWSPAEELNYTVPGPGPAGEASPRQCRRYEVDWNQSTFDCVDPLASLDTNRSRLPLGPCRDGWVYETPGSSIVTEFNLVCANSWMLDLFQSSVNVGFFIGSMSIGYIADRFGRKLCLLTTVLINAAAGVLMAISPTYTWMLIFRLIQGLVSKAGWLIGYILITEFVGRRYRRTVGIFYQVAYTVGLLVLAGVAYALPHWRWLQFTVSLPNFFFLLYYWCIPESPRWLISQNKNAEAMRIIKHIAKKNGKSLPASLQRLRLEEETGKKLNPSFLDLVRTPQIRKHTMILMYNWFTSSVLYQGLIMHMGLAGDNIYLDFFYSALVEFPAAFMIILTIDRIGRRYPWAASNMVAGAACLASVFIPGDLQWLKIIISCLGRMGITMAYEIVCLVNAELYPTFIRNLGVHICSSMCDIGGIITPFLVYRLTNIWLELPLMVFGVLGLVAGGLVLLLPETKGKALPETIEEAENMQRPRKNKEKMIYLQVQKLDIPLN
Description: as §1, §2, §3, §4

Nc1ncnc2c1ncn2CCOCP(=O)(O)O [Adefovir]
transporter responsible for intake (OAT1; concluded from decrease with inhibitor Probenecid): due to OAT1
substrate intake into the cells (OAT1; radiolabeled Adefovir in HBSS buffer, 2 minutes, human renal proximal tubule epithelial cells 18 to 24 hours after re-seeding, FIG. 15A): taken into the cells
amount of cellular intake, basement membrane side (B to C) versus apical membrane side (A to C) (OAT1; radiolabeled Adefovir, 2 minutes, FIG. 15A): higher from the cellular basement membrane side than from the cellular apical membrane side

CN(C)C(=N)N=C(N)N [Metformin]
transporter responsible for intake (OCT2; concluded from decrease with inhibitor Cimetidine): due to OCT2
substrate intake into the cells (OCT2; radiolabeled Metformin in HBSS buffer, 10 minutes, human renal proximal tubule epithelial cells 18 to 24 hours after re-seeding, FIG. 15B): taken into the cells
amount of cellular intake, basement membrane side (B to C) versus apical membrane side (A to C) (OCT2; radiolabeled Metformin, 10 minutes, FIG. 15B): higher from the cellular basement membrane side than from the cellular apical membrane side
